Measurements taken from patent US11771647B2, “Eye drops in form of solution comprising benzopyran derivative or pharmaceutically acceptable salt thereof” (HANLIM PHARMACEUTICAL CO., LTD., priority 2018, dated 2023).

Experiments:
[1] = Manufacturability / solubilization of HL217 eye drop solution (appearance); type: physicochemical; conditions: pH 6.5
Description: That is, according to the components and amounts shown in Table 1, HL217, polyethylene glycol 400, glycerin, EDTA, and boric acid were added to the sterile purified water under stirring. The pH was adjusted to 6.5 with an aqueous hydrochloric acid solution and/or an aqueous sodium hydroxide solution; and then sterile purified water was added to the solution, so as to adjust the final volume. The amounts in Table 1 represent the amount of each component per 1 mL of the total volume.
Since the maximum allowable concentration of the U.S. Food and Drug Administration for polyethylene glycol 400 is 50 mg/ml in an eye drop formulation, the amount of polyethylene glycol 400 was adjusted to 1/10 (i.e., 15.0 mg) and correspondingly the amount of glycerin was also adjusted to 1/10 (i.e., 12.0 mg) for evaluating the solubilization of HL217. […] Specifically, according to the components and amounts shown in Table 2, HL217, polyethylene glycol 400, glycerin, EDTA, and boric acid were added to the sterile purified water under stirring. The pH was adjusted to 4.5 with an aqueous hydrochloric acid solution and/or an aqueous sodium hydroxide solution; and then sterile purified water was added to the solution, so as to adjust the final volume. The amounts in Table 2 represent the amount of each component per 1 mL of the total volume. […]

[2] = test system: mice with very low-density lipoprotein receptor (vldlr) gene knockout; test: Inhibitory efficacy against vascular leakage in animal model of macular degeneration (FIG. 1); type: in vivo; conditions: single intravitreal administration of 1 μl (50 ng/μl ranibizumab) in each eye
Description: Lucentis™ injection (Norvatis, Basel, Switzerland) was used as a positive control.
The control group was instilled with 1 drop of sterile physiological saline, in each eye of normal mice (n=8), twice daily for 3 weeks. The AMD-induced group was instilled with 1 drop of sterile physiological saline, in each eye of mice with vldlr gene knockout (vldlr −/− mice), twice daily for 3 weeks. The positive control group received 1 μl of Lucentis™ injection (containing 50 ng/μl of ranibizumab) in each eye of vldlr −/− mice, by a single intravitreal administration using a Hamiltion syringe (Hamilton company, Reno, NV, USA).
The following experiments were carried out In order to evaluate any abnormality of retinal blood vessels, such as angiogenesis formation and abnormal blood vessel permeability. […] The isolated retina was placed on a slide, dropped with an aqueous mounting medium (Fluoromount™, Sigma, St. Louis, MO, USA) and then observed under a fluorescence microscope. For quantitative analysis of tracer dye, blood was collected from the heart 10 minutes after the dye injection, perfused with sterile PBS to remove residual dye from the blood vessels, and then the eyes were extracted to isolate the retina. The isolated retina was homogenized with 100 μL of PBS and then centrifuged to obtain the supernatant, in which the amount of FITC-dextran was then measured using a spectrofluorophotometer. […]

In the case of COC(OC)[C@]1(C)Oc2ccc(N)cc2[C@H](N(Cc2ncc[nH]2)c2ccc(Cl)cc2)[C@H]1O [HL217, (2R,3R,4S)-6-amino-4-[N-(4-chlorophenyl)-N-(1H-imidazol-2-ylmethyl)amino]-3-hydroxy-2-methyl-2-dimethoxymethyl-3,4-dihydro-2H-1-benzopyran], the Appearance [1] is reported as “precipitates were generated”.

B1: Lucentis™ injection: Lucentis™ injection (Norvatis) containing 50 ng/μl of ranibizumab, used as a positive control (antibody, chains of the INN, looked up, V domains shown)
VH: EVQLVESGGGLVQPGGSLRLSCAASGYDFTHYGMNWVRQAPGKGLEWVGWINTYTGEPTYAADFKRRFTFSLDTSKSTAYLQMNSLRAEDTAVYYCAKYPYYYGTSHWYFDVWGQGTLVTVSS
VL: DIQLTQSPSSLSASVGDRVTITCSASQDISNYLNWYQQKPGKAPKVLIYFTSSLHSGVPSRFSGSGSGTDFTLTISSLQPEDFATYYCQQYSTVPWTFGQGTKVEIK
With B1 the “efficacy (vascular leakage and pathogenic angiogenesis)” value [2] was “significant efficacy only at the 2nd week”.
